Test results: patent US9611265B2, “Tropomyosin-related kinase (TRK) inhibitors” (Genzyme Corporation, priority 2013, dated 2017)

How the values were obtained:
[1] = test system: PGPS Knee Arthritis; experiment: Reactivated Peptidoglycan-Polysaccharide Knee Arthritis; type: in vivo, Male Lewis rats; settings: for gait scores and deficiency, first reactivation: days 1-4
Excerpt: Male Lewis rats were acclimated to the testing facility for 7 days. The rats were housed in 5 per cage in shoe-box polycarbonate cages with wire tops, wood chip bedding and suspended food and water bottles. On day −21, the male Lewis rats were randomized into treatment groups by body weight. The rats were anesthetized and injected with peptidoglycan-polysaccharide (PGPS) into the right knee to induce PGPS arthritis. Arthritis was reactivated on days 0 and 14 by an IV tail injection of PGPS. […] Gait analysis was performed by applying ink to the ventral surface of the foot and documenting weight bearing during movement across paper. […] Right knees were removed, trimmed of extraneous tissue, and collected into 10% neutral buffered formalin. After two days in the formalin buffer and three days in 10% formic acid decalcifier, the knees were cut into two approximately equal halves in the frontal plane and processed for paraffin embedding and stained with T.Blue. Histological examinations were subsequently performed for bone resorption, inflammation, pannus and cartilage damage. […] Gait scores were analyzed using a Kruskal-Wallis test (non-parametric ANOVA) with Dunn's multiple comparison post-test. Histopathology scores were analyzed using a Kruskal-Wallis test (non-parametric ANOVA) with Dunn's multiple comparison post-test.

[2] = test system: Monosodium Lodoacetate Induced Osteoarthritis; experiment: Monosodium Iodoacetate Induced Osteoarthritis, weight bearing; type: in vivo, Male Wistar rats; settings: for comparison with MIA/LRS at day 35: day 35, p<0.05
Excerpt: Male Wistar rats were acclimated to the testing facility for 5 days. The rats were individually housed in micro-isolator shoe-box polycarbonate cages with cob bedding and water bottles. Dry pelleted food of known composition and nutritional components was provided ad libitum Animals were randomized by treatment type using an online random number generator. Each treatment group was assigned a number, entered into the random number generator, recorded then translated back to the associated treatment. All injections were given in the left leg unless the treatment indicated “Contralateral” in which case the injection was given in the right leg. Both legs were shaved on all animals at the time of the treatment injections to blind the test administrator. The rats were weighed the day prior to injection with monosodium iodoacetate (MIA), the agent used to induce osteoarthritis in the animals. The day of injection, rats from groups 2-8 received a subcutaneous (SC) dose of buprenorphine at least one hour prior to induction. […] Naïve animals were then placed in recovery. All other animals received an injection of MIA. In animals receiving MIA, the hind leg was flexed and an injection of MIA (25 μL) was injected into the intra-articular space using a 27 gauge ½ inch needle. Standard postoperative care was performed (twice daily for 48 hours). On Day 8 the test article was administered as described above. On Days −1, 7, 14, 21, 28, and 35 post-induction, weight bearing was assessed. A weight bearing scale was utilized using a plexiglass chamber to assess the amount of weight distributed in each hind limb. The animals were acclimated to the chamber for at least 5 minutes prior to testing and the weight distribution was recorded 5 times. The animals were terminated at day 36. Both stifles were collected from each animal; the skin was removed from the joint and the patella was removed while leaving as much of the fat pad intact with the joint. The stifle was placed in the appropriate cassette with rolled gauze to secure the stifle in the cassette and then placed into 4% Paraformaldehyde. These samples were examined histologically.

[3] = Triamcinolone 0.06 mg intra-articular
[4] = intra-articular on day -7 (Triamcinolone 0.06 mg; test compound 1 mg)

SMILES | reduction of gait scores and deficiency AUC, each reactivation calculated separately [1, 3] | reduction of gait scores and deficiency AUC, summed [1, 3] | knee caliper measurements [1, 4] | reduction in knee caliper AUC [1, 4] | gait scores and deficiency, first reactivation [1, 4] | weight bearing efficacy ([2]; 10 μg Contralateral) | weight bearing efficacy ([2]; 10 μg Ipsilateral, intra-articular on Day 8) | weight bearing efficacy ([2]; 30 μg Contralateral) | comparison with MIA/LRS at day 35 ([2]; 30 μg Ipsilateral) | weight bearing efficacy ([2]; 30 μg Ipsilateral, intra-articular on Day 8) | systemic pain relief (weight bearing) ([2]; 100 μg Contralateral, 1-4 weeks) | comparison with MIA/LRS at day 35 ([2]; 100 μg Ipsilateral) | weight bearing efficacy ([2]; 100 μg Ipsilateral, intra-articular on Day 8) | body weight results ([2]; 10-100 μg intra-articular) | histopathology of the knee joint ([2]; day 36) | reduction of AUC for scores and deficiency, first reactivation ([1]; 1 mg intra-articular) | reduction of AUC for scores and deficiency, second reactivation ([1]; 1 mg intra-articular) | reduction of summed AUC for deficiency ([1]; 1 mg intra-articular) [%] | histopathology, reductions in all parameters ([1]; day 18, bone resorption, inflammation, pannus, cartilage damage (Triamcinolone 0.06 mg; test compound 1 mg)) | gait scores and deficiency, second reactivation ([1]; intra-articular on day -7 (Triamcinolone 0.06 mg; test compound 1 mg), days 15-18)
C[C@]12C=CC(=O)C=C1CC[C@H]1[C@@H]3C[C@@H](O)[C@](O)(C(=O)CO)[C@@]3(C)C[C@H](O)[C@@]12F [Triamcinolone, reference compound] | 74-99% | 88-92% | significantly reduced on days 2, 4, 16, and 18 | 53-106% | significantly reduced gait scores and deficiency throughout the first reactivation (days 1-4) | – | – | – | – | – | – | – | – | – | – | – | – | – | – | –
COc1ccc(COc2ccc(Cn3c(N)nc4cc(-c5cnn(C)c5)cnc43)cc2OC)cc1 [Ex. 3-15, 3-(3-Methoxy-4-((4-methoxybenzyl)oxy)benzyl)-6-(1-methyl-1H-pyrazol-4-yl)-3H-imidazo[4,5-b]pyridin-2-amine] | – | – | significantly reduced on day 14 | generally unaffected by treatment | significant reductions in gait scores and deficiency throughout the first reactivation | efficacy at 3 and 4 weeks following administration | efficacy was observed at 2 through 4 weeks following administration | efficacy at only the 3 week timepoint | MIA/LRS was significantly worse | effective throughout the four weeks following administration | did not show systemic pain relief at any timepoint | MIA/LRS was significantly worse | effective throughout the four weeks following administration | No adverse observations | no adverse changes | 92-93% | 85-86% | 84 | 49-94% | Scores were significantly reduced throughout the second reactivation, and reductions in deficiency were significant on days 15, 17, and 18
